Results as given in PubChem BioAssay (NCI).
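All cell lines were grown in 96-well plates and treated with compound for 48 hours. TGI: concentration producing complete growth inhibition.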

Legend:
Test in all cases: NCI tumour cell line growth inhibition, 48 h
OVCAR-5 ovarian = system: OVCAR-5 ovarian
SN12C renal = system: SN12C renal
SK-MEL-28 melanoma = system: SK-MEL-28 melanoma
HCT-15 colon = system: HCT-15 colon
DMS 273 small cell lung = system: DMS 273 small cell lung
NCI-H460 lung = system: NCI-H460 lung
XF 498 CNS = system: XF 498 CNS
DMS 114 small cell lung = system: DMS 114 small cell lung
DLD-1 colon = system: DLD-1 colon
LXFL 529 NSCLC = system: LXFL 529 NSCLC
SK-OV-3 ovarian = system: SK-OV-3 ovarian
HCT-116 colon = system: HCT-116 colon
KM20L2 colon = system: KM20L2 colon
HOP-62 NSCLC = system: HOP-62 NSCLC
A498 renal = system: A498 renal
SNB-78 CNS = system: SNB-78 CNS
M19-MEL melanoma = system: M19-MEL melanoma

Measured: TGI

O=c1[nH]nc2c3n[nH]c(=O)n3c3ccccc3n12
> 100 µM: OVCAR-5 ovarian | SN12C renal | SK-MEL-28 melanoma | HCT-15 colon | DMS 273 small cell lung | NCI-H460 lung | XF 498 CNS | DMS 114 small cell lung | DLD-1 colon | LXFL 529 NSCLC | SK-OV-3 ovarian | HCT-116 colon | KM20L2 colon | HOP-62 NSCLC | A498 renal | SNB-78 CNS | M19-MEL melanoma

CC1(Br)C(=O)NC(=O)N([C@H]2C[C@H](O)[C@@H](CO)O2)C1N=[N+]=[N-] (some centres undefined)
> 100 µM: OVCAR-5 ovarian | SN12C renal | SK-MEL-28 melanoma | HCT-15 colon | DMS 273 small cell lung | NCI-H460 lung | XF 498 CNS | DMS 114 small cell lung | DLD-1 colon | LXFL 529 NSCLC | SK-OV-3 ovarian | HCT-116 colon | KM20L2 colon | HOP-62 NSCLC | A498 renal | SNB-78 CNS | M19-MEL melanoma
